What was measured:
BALB/c mice = assay: In vivo delivery of Fluc mRNA-encapsulating LNP formulations, luciferase signal by In Vivo Imaging System (IVIS); conditions: tail vein injection (IV) 70 μL, female BALB/c mice, 6 hours after injection; for Average number of photons (Total in-vivo flux): LNP formulation encapsulating Fluc mRNA (Lipid:DSPC:CHO-HP:M-DMG-2000 48:10:40.5:1.5); for Average number of photons (Liver) / Average number of photons (Spleen): LNP formulation encapsulating Fluc mRNA
Method: Animal preparation: Female BALB/c mice of 6-8 weeks old were selected and raised in an SPF grade breeding room. Animal testing was conducted in strict accordance with the guidelines of national health institutions and animal ethics requirements.
In vivo Delivery: prior to injection of the test LNP formulation, the LNP formulation was gently and repeatedly inverted to thoroughly mix the sample of the formulation. A corresponding amount of the LNP formulation was aspirated with a 1 ml insulin syringe, and the LNP formulation was injected by tail vein injection (IV), with 3 mice in duplicate per formulation. Each mouse was injected with 70 μL of the corresponding LNP formulation encapsulating the luciferase mRNA (Fluc mRNA) prepared in Experimental Example 1.
6 hours after injection of LNP formulations, mice were injected with 200 μL D-Luciferin luciferase developing substrate (Catalog No. 122799; Manufacturer: Perkin Elmer). After the substrate was injected, the mice were anesthetized with isoflurane inhalation, and the injection time of luciferase developing substrate was recorded.
The encapsulation efficiency of the lipid nanoparticle encapsulating luciferase mRNA (Fluc mRNA) with a representative amino lipid compound and the fluorescence expression intensity induced by the same are shown in Table 4, with the LNP formulation containing SM-102, 1001 or ALC-0315 as a control LNP formulation. The preparation method of the control LNP formulation was basically the same as that of the LNP formulations in Experimental Example 1, with the difference lying in that the amino lipid compounds of the present disclosure were replaced with SM-102, 1001 or ALC-0315 in the preparation of the control LNP formulation.

[1] = tested on: immune cell populations in the spleen and PBMC; assay: Delivery efficiency of eGFP mRNA LNP to immune cell populations in spleen and peripheral blood (flow cytometry); format: in vivo; conditions: eGFP mRNA encapsulating LNP, intravenous, C57BL/6 mice, 12 hours, flow cytometry (FIG. 6 to 7)
Method: C57BL/6 mice (3 mice per group) were intravenously injected with eGFP mRNA encapsulating LNP. After 12 hours, the mice were dissected, and the spleen and peripheral blood, were collected to prepare single-cell suspensions of various tissues and organs. After blocking with Fc blocking antibodies and surface staining with fluorescent-labeled antibodies, flow cytometry was conducted to analyze the expression levels of eGFP in various immune cell populations to confirm the delivery efficiency of lipid nanoparticles comprising different amino lipid compounds to immune cell populations in different tissues and organs.
“Blank” in FIG. 6 and FIG. 7 refers to the control group injected with 100 μL Tris buffer.

CCCCCCOC(CCCOC(=O)CCCCCCCCC(CCCCCCCCC(=O)OCCCC(OCCCCCC)OCCCCCC)OC(=O)OCCCN(C)C)OCCCCCC [compound 388]
Average number of photons (Total in-vivo flux) (BALB/c mice): 1.94E+08
Average number of photons (Liver) (BALB/c mice): 3.66E+07
Average number of photons (Spleen) (BALB/c mice): 1.34E+06
delivery efficiency to immune cell populations (eGFP expression) [1]: different delivery preferences to different immune cells

CCCCCCOC(CCCOC(=O)CCCCCC(CCCCCC(=O)OCCCC(OCCCCCC)OCCCCCC)OC(=O)OCCCN(C)C)OCCCCCC [compound 2039]
Average number of photons (Total in-vivo flux) (BALB/c mice): 2.05E+08
Average number of photons (Liver) (BALB/c mice): 4.26E+07
Average number of photons (Spleen) (BALB/c mice): 3.75E+07
delivery efficiency to immune cell populations (eGFP expression) [1]: different delivery preferences to different immune cells

CCCCCCOC(CCCOC(=O)CCCCCCCC(CCCCCCCC(=O)OCCCC(OCCCCCC)OCCCCCC)OC(=O)OCCCN(C)C)OCCCCCC [compound 2041]
Average number of photons (Total in-vivo flux) (BALB/c mice): 2.08E+08
Average number of photons (Liver) (BALB/c mice): 4.16E+07
Average number of photons (Spleen) (BALB/c mice): 1.07E+07
delivery efficiency to immune cell populations (eGFP expression) [1]: different delivery preferences to different immune cells

CCCCCCOC(CCCOC(=O)CCCCCC(CCCCCC(=O)OCCCC(OCCCCCC)OCCCCCC)OC(=O)OCCCN(CC)CC)OCCCCCC [compound 2043]
Average number of photons (Total in-vivo flux) (BALB/c mice): 1.64E+08
Average number of photons (Liver) (BALB/c mice): 2.59E+07
Average number of photons (Spleen) (BALB/c mice): 1.07E+07
delivery efficiency to immune cell populations (eGFP expression) [1]: different delivery preferences to different immune cells

CCCCCCOC(CCCOC(=O)CCCCCC(CCCCCC(=O)OCCCC(OCCCCCC)OCCCCCC)OC(=O)OCCCN(CC)CC)OCCCCCC [compound 2045]
Average number of photons (Total in-vivo flux) (BALB/c mice): 5.83E+07
Average number of photons (Liver) (BALB/c mice): 8.90E+06
Average number of photons (Spleen) (BALB/c mice): 1.89E+06
delivery efficiency to immune cell populations (eGFP expression) [1]: different delivery preferences to different immune cells

From patent publication US20260035338A1, “AMINO LIPID COMPOUND AND LIPID NANOPARTICLE FOR DELIVERING BIOACTIVE INGREDIENT” (SHENZHEN SHENXIN BIOTECHNOLOGY CO., LTD., priority 2022, published 2026)
